Measurements as given in ChEMBL document CHEMBL3351914, “Finding the perfect spot for fluorine: improving potency up to 40-fold during a rational fluorine scan of a Bruton's Tyrosine Kinase (BTK) inhibitor scaffold” (Bioorg Med Chem Lett, 2015).

Target: Tyrosine-protein kinase BTK (Homo sapiens, UniProt Q06187)
Assay: Inhibition of BTK in human whole blood assessed as decrease in CD69 positive cells
Assay type: cell-based

Sequence of Tyrosine-protein kinase BTK (Q06187 whole entry): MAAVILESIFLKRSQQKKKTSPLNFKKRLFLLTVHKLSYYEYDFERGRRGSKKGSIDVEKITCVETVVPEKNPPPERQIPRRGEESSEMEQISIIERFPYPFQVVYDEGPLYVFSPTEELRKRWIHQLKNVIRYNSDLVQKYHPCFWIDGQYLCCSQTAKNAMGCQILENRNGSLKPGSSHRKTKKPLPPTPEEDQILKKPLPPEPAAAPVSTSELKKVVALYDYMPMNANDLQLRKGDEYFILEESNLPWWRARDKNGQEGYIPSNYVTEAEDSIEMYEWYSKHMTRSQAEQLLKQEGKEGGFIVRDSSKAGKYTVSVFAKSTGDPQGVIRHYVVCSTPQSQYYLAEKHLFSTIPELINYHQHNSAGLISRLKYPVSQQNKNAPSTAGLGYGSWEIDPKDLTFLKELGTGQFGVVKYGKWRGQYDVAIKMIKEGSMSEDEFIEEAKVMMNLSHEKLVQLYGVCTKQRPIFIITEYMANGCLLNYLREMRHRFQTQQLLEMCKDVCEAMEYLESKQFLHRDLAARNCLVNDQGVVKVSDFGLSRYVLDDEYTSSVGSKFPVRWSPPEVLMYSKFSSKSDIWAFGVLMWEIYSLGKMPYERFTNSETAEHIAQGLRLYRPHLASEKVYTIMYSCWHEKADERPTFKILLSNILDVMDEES

Row | SMILES | IC50 [nM]
1 | CN(C)c1ccc2c(=O)n(-c3cccc(-c4cc(Nc5ccc(C(=O)N6CCOCC6)cn5)c(=O)n(C)c4)c3CO)ccc2c1 | 280
2 | CNC(=O)Nc1cc(-c2ccc(F)c(N3CCc4cc(N(C)C)ccc4C3=O)c2CO)cn(C)c1=O | 3700
3 | CCNC(=O)Nc1cc(-c2cccc(N3CCc4cc(N(C)C)ccc4C3=O)c2CO)cn(C)c1=O | 1600

Molecules with a lower IC50, results first:

Row | IC50 [nM] | SMILES
4 | 200 | CN(C)c1ccc2c(c1)CCN(c1cc(F)cc(-c3cc(Nc4ccc(N5CCOCC5)cn4)c(=O)n(C)c3)c1CO)C2=O
5 | 190 | CN(C)c1ccc2c(c1)CCN(c1cccc(-c3cc(Nc4ccc(N5CCOCC5)cn4)c(=O)n(C)c3)c1CO)C2=O
6 | 60 | CN1CCN(c2ccc(Nc3cc(-c4cccc(N5CCc6cc(C(C)(C)C#N)ccc6C5=O)c4CO)cn(C)c3=O)nc2)CC1
